The values below come from publication PMC6694155, “PTPσ inhibitors promote hematopoietic stem cell regeneration” (Nature Communications, 2019).

In test [1] the test system is RHOA-GTP in BM lin− cells. As to the kind of experiment: G-LISA activation assay: RHOA-GTP. Particulars: for RHOA-GTP level (G-LISA): Supplementary Figure 7b (left panel). The test is classed as cell-based, mouse. Here is the method: The RAC1-GTP, RHOA-GTP, and CDC42-GTP activation levels in BM lin^− cells were measured using a colorimetric-based RAC1-, RHOA-, and CDC42 G-LISA Activation Assay Kit (Cytoskeleton, Inc.). BM cells from femurs and tibias were isolated from 12-week-old Ptprs^+/+ and Ptprs^−/− mice. Cells were then depleted of lineage-committed cells with Direct Lineage Cell Depletion Kit (Miltenyi Biotec, #130-110-470; 1:5). The BM lin^− cell fraction was then serum starved in Iscove’s modified Dulbecco’s medium (IMDM) and treated with either vehicle (equal amount of DMSO) or 1 μg/mL DJ001 for 10 min at 37 °C. After treatment, cells were washed with ice-cold PBS and then placed in lysis buffer supplemented with protease inhibitor. Lysate concentrations were measured by Pierce^TM BCA Protein Assay Kit (ThermoFisher Scientific). G-LISA was performed according to the manufacturer’s instructions. Briefly, 12.5 μg of lysates was added to a GTP-binding protein pre-coated plate and active RAC1-GTP, RHOA-GTP, or CDC42-GTP levels were measured at 490 nm using a PowerWave XS2 microplate reader (BioTek).

For the next test, the system named is C57BL/6 mice. As to the kind of experiment: Hematopoietic regeneration at day +10 after 750 cGy TBI (PB counts, BM KSL and progenitor cells, CFCs). The test is classed as in vivo, mouse. On the set-up: Supplementary Figure 4c: BFU-E / Supplementary Figure 5e: CFU-GM / Supplementary Figure 5e: BFU-E / Supplementary Figure 5e: CFU-GEMM: unit not given here. Here is the method: Femurs and tibiae were collected from killed C57BL/6 or Ptprs^−/− mice and flushed with IMDM containing 10% FBS and 1% penicillin–streptomycin for BM cells. PB was collected through sub-mandibular puncture. Cells were filtered through a 40 μM strainer and then treated with ACK lysis buffer (Sigma Aldrich) before antibody staining for flow cytometry. For KSL and CD150^+CD48^−KSL cell analysis, BM cells were stained with allophycocyanin (APC)-and Cy7-conjugated anti-mouse Sca1 (BD Biosciences, #560654, 1:100), phycoerythrin (PE)-conjugated anti-mouse c-kit (BD Biosciences, #553355, 1:100), V450 lineage cocktail (BD Biosciences, 561301, 1:10), Alexa Fluor 488-conjugated anti-mouse CD48 (BioLegend, #103414, 1:100), and Alexa Fluor 647-conjugated anti-mouse CD150 (Biolegend, #115918, 1:100) antibodies. For MEP, CMP, GMP, and CLP cell analysis, BM cells were stained with APC-Cy7-conjugated anti-mouse Sca1 (BD Biosciences, #560654, 1:100), PE-conjugated anti-mouse ckit (BD Biosciences, #553355, 1:100), V450 lineage cocktail (BD Biosciences, #561301; 1:10), Alexa Fluor 488-conjugated anti-mouse CD127 (BD Biosciences, #561533, 1:100), Alexa Fluor 647-conjugated anti-mouse CD34 (BD Biosciences, #560230; 1:100), and BV605-conjugated anti-mouse CD16/32 antibodies (BD Biosciences, #563006; 1:100). For donor engraftment analysis in transplanted mice, PB or BM cells were stained with BV605-conjugated anti-mouse CD45.2 (BioLegend, #109841, 1:100), fluorescein isothiocyanate (FITC)-conjugated anti-mouse CD45.1 (BD Biosciences, #553775, 1:100), PE-conjugated anti-mouse Mac-1 (BD Biosciences, #557397, 1:100) and anti-mouse Gr1 (BD Biosciences, #553128, 1:100), V450-conjugated anti-mouse CD3 (BD Biosciences, #561389, 1:100), and APC-Cy7-conjugated anti-mouse B220 (BD Biosciences, 552094, 1:100) antibodies.
For survival studies, 10-week-old female C57BL/6 mice were irradiated with 750 cGy TBI, which is lethal for ~50% of C57BL/6 mice by day + 30 (LD50/30), using a Shepherd Cesium-137 irradiator. Twenty four hours post irradiation, mice were administered daily subcutaneous injections of 5 mg/kg DJ001 or DJ009, or vehicle in a volume of 100 μL for 10 days. DJ001 or DJ009 injections were prepared in PBS, 0.5% Tween 80, and 10% DMSO. Corresponding vehicle injections contained PBS, 10% DMSO, and 0.5% Tween 80. PB complete blood counts were measured using a Hemavet 950 instrument (Drew Scientific) at day + 10 post irradiation. For hematopoietic analysis, BM cells were collected at day + 10 post irradiation. To study whether DJ001 increased survival rates through activation of RAC signaling, the RAC inhibitor, EHT1864 (Selleckchem), was dissolved in PBS and administered intraperitoneally, 40 mg/kg every other day, to 750 cGy-irradiated mice until day + 10.
CFC assays (colony-forming unit-granulocyte monocyte), burst-forming unit-erythroid, and CFU-GEMM were performed using MethoCult GF M3434 (Stemcell Technologies)[6]. For all in vitro assays, BM CD34^−KSL cells, KSL cells, and Lin^− cells were cultured in TSF media (IMDM, 10% FBS, 1% pen-strep, 20 ng/mL recombinant mouse TPO, 125 ng/mL recombinant mouse SCF, 50 ng/mL recombinant mouse Flt3 ligand). Recombinant mouse SCF, Flt3 ligand, and TPO were purchased from R&D Systems. For competitive repopulation assays, BM cells were isolated from donor 10–12-week-old female CD45.2^+ mice. Recipient 10-week-old female CD45.1^+ B6.SJL mice were irradiated with 950 cGy TBI using a Cs137 irradiator and donor BM cells were administered via tail vein injection along with a competing dose of 1 × 10^5 non-irradiated host BM cells. Multilineage donor hematopoietic cell engraftment was measured in the PB by flow cytometry.

Setting [2] is: day +10 after 750 cGy TBI, individual mice.
The mark [3] stands for this setting: day +10 after 750 cGy TBI, replicates.
Setting [4] is: day +10 after 750 cGy, 5 mg/kg s.c. daily.
Setting [5] is: day +10 after 750 cGy, 5 mg/kg s.c. daily, 5 mg/kg.
Where [6] appears, read: after 750 cGy TBI, individual mice.

“And” between values parts separate entries of the source, which are not always exact repeats. Equal entries are not always repeated.

Consider `O=C(/C=C\Nc1cccc([N+](=O)[O-])c1)c1ccccc1` [DJ001, (Z)-3-((3-nitrophenyl)amino)-1-phenylprop-2-en-1-one], for which the “activation of RhoA” value in test [1] (BM lin− cells, 1 μg/mL DJ001, 10 min) is recorded as “did not alter the activation”. Further, the “RHOA-GTP level (G-LISA)” value in test [1] (Ptprs+/+ cells) is 0.1099 and 0.0821 and 0.1369. Moreover, the “RHOA-GTP level (G-LISA)” value in test [1] (Ptprs-/- cells) was 0.1117 and 0.0668 and 0.0845. Further, the “recovery of BM KSL cells, ckit+sca-1−lin− myeloid progenitors and CFCs following TBI” value with C57BL/6 mice (750 cGy, 5 mg/kg s.c. daily day +1 to +10) is reported as “accelerated the recovery”. Moreover, in the test on C57BL/6 mice (day +10 after 750 cGy), the “percentages of BM MEPs, CMPs, GMPs, or PB myeloid, B-cell or T-cell populations” value is given as “did not alter the percentages” and the “percentages of BM common lymphoid progenitors (CLPs)” value was “modest increase”. In the test with C57BL/6 mice (setting [2]), the “Supplementary Figure 4d (center left panel): BM progenitor cells” value is 0.05534 and 0.6345 and 0.3797 and 0.1366 and 0.1346 and 0.08271 and 0.1205 and 0.1142 and 0.1459 and 0.6791; the “Supplementary Figure 4d (center right panel): BM progenitor cells” value is 0.1315 and 0.5274 and 0.7758 and 0.2631 and 0.4325 and 0.1366 and 0.1603 and 0.4187 and 0.3345 and 1.367; the “Supplementary Figure 4d (left panel): BM progenitor cells” value is 0.1083 and 0.8819 and 0.5478 and 0.2535 and 0.1578 (2×) and 0.2622 and 0.4013 and 0.1995 and 0.6663; the “Supplementary Figure 4d (right panel): BM progenitor cells” value was 0.07453 and 0.07514 and 0.1093 and 0.1068 and 0.06267 and 0.05116 and 0.04956 and 0.2046 and 0.1087. Also, in the test with C57BL/6 mice (setting [3]), the “Supplementary Figure 4c: BFU-E” value was 0 (2×) and 2 and 1 (3×); the “Supplementary Figure 4c: CFU-GEMM” value was 0 and 2 and 1 (2×) and 3 (2×); the “Supplementary Figure 4c: CFU-GM” value was 5 (3×) and 7 and 6 and 10. Besides, in the test with C57BL/6 mice (setting [4]), the “PB lymphocytes compared with vehicle” value was “more than twofold increased”, the “PB neutrophils compared with vehicle” value is listed as “more than twofold increased” and the “PB white blood cells compared with vehicle” value is “more than twofold increased”. In the test on C57BL/6 mice (setting [5]), the “PB WBCs per mouse (Figure 2c left panel)” value was 0.86 and 0.62 and 0.68 and 0.76 and 0.34 and 0.7 and 0.52 and 0.64; the “PB lymphocytes (LYMPH) per mouse (Figure 2c right panel)” value is 0.38 and 0.39 and 0.4 and 0.45 and 0.24 and 0.36 and 0.33 and 0.42 and 0.37; the “PB neutrophils (NEU) per mouse (Figure 2c center panel)” value was 0.27 and 0.16 and 0.18 and 0.17 and 0.06 and 0.2 and 0.12. In addition, in the test with C57BL/6 mice (day +10 post 750 cGy), the “numbers of BM KSL cells per mouse (Figure 2e center left panel)” value was 15.7 and 9.66 and 15 and 10.6 and 9.42 and 14.8 and 11.8 and 11.5 and 10.7; the “numbers of BM c-kit+sca-1− cells per mouse (Figure 2e right panel)” value is 1.33 and 6.87 and 4.4 and 4.05 and 3.27 and 5.18 and 7.29 and 2.89 and 7.28; the “percentages of BM KSL cells per mouse (Figure 2e left panel)” value is 0.749% and 0.807% and 1.138% and 0.766% and 0.608% and 0.862% and 0.365% and 1.197% and 0.783%; the “percentages of BM c-kit+sca-1− cells per mouse (Figure 2e center right panel)” value was 1.717% and 4.73% and 3.337% and 2.916% and 2.11% and 3.013% and 2.25% and 3.004% and 5.312%. Moreover, in the test on C57BL/6 mice (irradiated mice, day +10), the “increase of percentages and numbers of BM KSL stem/progenitor cells compared to irradiated control mice” value worked out at 2 fold.
For `O=C(/C=C\Nc1cc(F)cc(F)c1)c1ccccc1` [DJ009, (Z)-3-((3,5-difluorophenyl)amino)-1-phenylprop-2-en-1-one], the “PB WBCs, neutrophils and lymphocytes, BM KSL cells, and CFCs” value with C57BL/6 mice (750 cGy TBI, 5 mg/kg DJ009 daily for 10 days) is “significant increase”. Besides, in the test on C57BL/6 mice (setting [6]), the “Supplementary Figure 5c (center panel): PB counts” value is 0.08 and 0.19 and 0.29 and 0.1 and 0.39 and 0.13 and 0.2; the “Supplementary Figure 5c (left panel): PB counts” value is 1.4 and 0.72 and 1.76 and 0.4 and 1.62 and 0.52 and 0.94; the “Supplementary Figure 5c (right panel): PB counts” value is 1.27 and 0.4 and 1.32 and 0.26 and 0.96 and 0.29 and 0.63; the “Supplementary Figure 5d (center panel): BM cells” value was 4.83 and 5.26 and 6.06 and 14.68 and 8.28 and 9.38 and 7.6. For the same molecule, the “Supplementary Figure 5d (left panel): BM cells” value with C57BL/6 mice (setting [6]) was 1.079 and 0.621 and 0.841 and 0.709 and 1.581 and 1.301 and 0.94. In addition, in the test on C57BL/6 mice (after 750 cGy TBI, replicates), the “Supplementary Figure 5e: BFU-E” value was 0 (6×) and 1 (2×) and 2; the “Supplementary Figure 5e: CFU-GEMM” value was 1 and 0 (3×) and 3 and 2 (3×) and 4; the “Supplementary Figure 5e: CFU-GM” value is 5 and 4 and 2 and 6 and 8 and 7 and 19 and 18 and 15.
